Each structure is given as a SMILES string.

This data set can be described thus: Crystal form stability versus relative humidity. It counts as physicochemical.

As for `COc1cnc(C(=O)Nc2ccc(F)c([C@]34CN(c5ncc(F)cn5)C[C@@H]3CN=C(N)S4)c2)cn1.O` [Example 1B, Crystalline Form 2 N-[3-[(4aR,7aS)-2-Amino-6-(5-fluoropyrimidin-2-yl)-4,4a,5,7-tetrahydropyrrolo[3,4-d][1,3]thiazin-7a-yl]-4-fluoro-phenyl]-5-methoxy-pyrazine-2-carboxamide (hydrated)], the Crystal form stability entry (room temperature and relative humidity greater than about 15%) was “stable crystal form”.
Turning to `COc1cnc(C(=O)Nc2ccc(F)c([C@]34CN(c5ncc(F)cn5)C[C@H]3CSC(N)=N4)c2)cn1` [Example 1A, Crystalline Form 1 N-[3-[(4aR,7aS)-2-Amino-6-(5-fluoropyrimidin-2-yl)-4,4a,5,7-tetrahydropyrrolo[3,4-d][1,3]thiazin-7a-yl]-4-fluoro-phenyl]-5-methoxy-pyrazine-2-carboxamide], under “room temperature and relative humidity less than about 15%”, the Crystal form stability result was “stable crystal form”.
